Source: patent publication US10941157B2, “Pesticidal compositions and uses thereof” (Gilead Apollo, LLC, priority 2015, dated 2021)
Values after ≈ are worked out from the molar mass of the structure shown. Read-outs that look alike come from different tables or passages of the source.

Columns and labels:
[1] = test system: Botrtyis cinerea (Bc); assay: In vitro pathogen growth inhibition assay, Bc; type: cell-based; details: 48 h
Procedure, shortened: (§1)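 Spores in 17% V8 liquid medium, or 1.5 mm Rs mycelial plugs in ¼ PDB, incubated with compound; final concentration checked by OD600 for precipitation. OD readings at 24 and 48 h, blank-subtracted, plus visual ratings; value is concentration giving ≥90% growth inhibition.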

[2] = test system: Collectotrichum graminicola (Cg); assay: In vitro pathogen growth inhibition assay, Cg; type: cell-based; details: 48 h
Procedure, shortened: as §1

[3] = test system: Diplodia maydis (Dm); assay: In vitro pathogen growth inhibition assay, Dm; type: cell-based; details: Stenocarpella maydis, 48 h
Procedure, shortened: (§2)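 Spores of Dm, Fv and Pc were diluted in 17% V8 liquid medium; Rs used 1.5 mm mycelial plugs in ¼ PDB. Compounds from 2.5 mg/ml DMSO stocks were combined with inoculum, growth was read by OD600 at 24 and 48 h with blank subtraction, and the reported value is the concentration giving ≥90% inhibition.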

[4] = test system: Fusarium moniliforme (Fm); assay: In vitro pathogen growth inhibition assay, Fm; type: cell-based; details: Fusarium verticillioides
Procedure, shortened: as §1

[5] = test system: Fusarium virguliforme (Fv); assay: In vitro pathogen growth inhibition assay, Fv; type: cell-based
Procedure, shortened: as §2

[6] = test system: Phytophthora capsici (Pc); assay: In vitro pathogen growth inhibition assay, Pc; type: cell-based; details: 48 h
Procedure, shortened: as §2

[7] = test system: Rhizoctonia solani (Rs); assay: In vitro pathogen growth inhibition assay, Rs (mycelial plugs); type: cell-based; details: Rhizoctonia solani, 48 h, mycelial plugs
Procedure, shortened: as §2

[8] = test system: Septoria tritici (St); assay: In vitro pathogen growth inhibition assay, St; type: cell-based; details: Zymoseptoria tritici, 48 h
Procedure, shortened: as §1

[9] = test system: Blumeria graminis f. sp. hordei; assay: Foliar protection test for barley powdery mildew control; type: in vivo; details: foliar spray on Hordeum vulgare cv. Perry, inoculated 24 hours after treatment, evaluated 7 days later
Procedure, shortened: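 Six-day-old barley (cv. Perry) sprayed to wetness on both leaf sides; 24 h later inoculated by shaking spores from infected stock plants. Kept at 20 to 22° C, 70% relative humidity; mildew colonization assessed 7 days later.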

[10] = test system: Sphaerotheca fuliginea; assay: Foliar protection for cucumber powdery mildew control; type: in vivo; details: foliar spray on Cucumis sativus cv. Straight Eight, inoculated 24 hours after treatment, evaluated 7 days later
Procedure, shortened: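 Cucumber plants (cv. Straight Eight, 10 days old) sprayed to wetness on both leaf surfaces, then inoculated 24 h later by shaking sporulating stock plants over them. Held at 23–27 °C, 16 h light, 60% RH. Mildew colonization scored 7 days after inoculation, at compound concentrations of 10 ppm or lower.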

[11] = test system: Mycosphaerella graminicola (synthetic Septoria tritici); assay: Foliar protection test for wheat septoria leaf blotch control; type: in vivo; details: foliar spray on Triticum aestivum cv. WinterHawk, inoculated 1 hour after treatment, evaluated 16 days later
[12] = test system: Fusarium graminearum; type: in vivo; details: spray on flowering Triticum aestivum cv. Samson, inoculated 24 hours after treatment, evaluated 14 days later
[13] = test system: Puccinia triticina; assay: Foliar protection test for wheat leaf rust control; type: in vivo; details: foliar application to wheat (Triticum aestivum cv. Winterhawk), evaluated 10 days later
[14] = test system: Phakopsora pachyrhizi; assay: Foliar protection test for Asian soybean rust control; type: in vivo; details: foliar application to soybean (Glycine max AG4832), percent disease area evaluated 14 days later
[15] = ≥90% growth inhibition, 48 hours, vs 2% DMSO control, read-out: Compound Concentration (ppm) sufficient for ≥90% inhibition of Bc
[16] = ≥90% growth inhibition, 48 hours, vs 2% DMSO control, read-out: Compound Concentration (ppm) sufficient for ≥90% inhibition of Cg
[17] = ≥90% growth inhibition, 48 hours, vs 2% DMSO control, read-out: Compound Concentration (ppm) sufficient for ≥90% inhibition of Dm
[18] = ≥90% growth inhibition, 48 hours, vs 2% DMSO control, read-out: Compound Concentration (ppm) sufficient for ≥90% inhibition of Fm
[19] = ≥90% growth inhibition, 48 hours, vs 2% DMSO control, read-out: Compound Concentration (ppm) sufficient for ≥90% inhibition of Fv
[20] = ≥90% growth inhibition, 48 hours, vs 2% DMSO control, read-out: Compound Concentration (ppm) sufficient for ≥90% inhibition of Pc
[21] = ≥90% growth inhibition, 48 hours, vs 2% DMSO control, read-out: Compound Concentration (ppm) sufficient for ≥90% inhibition of Rs
[22] = ≥90% growth inhibition, 48 hours, vs 2% DMSO control, read-out: Compound Concentration (ppm) sufficient for ≥90% inhibition of St
[23] = ≥90% inhibition, 48 hours vs 2% DMSO control, read-out: Compound Concentration (ppm) sufficient for ≥90% inhibition of growth, Bc
[24] = ≥90% inhibition, 48 hours vs 2% DMSO control, read-out: Compound Concentration (ppm) sufficient for ≥90% inhibition of growth, Cg
[25] = ≥90% inhibition, 48 hours vs 2% DMSO control, read-out: Compound Concentration (ppm) sufficient for ≥90% inhibition of growth, Dm
[26] = ≥90% inhibition, 48 hours vs 2% DMSO control, read-out: Compound Concentration (ppm) sufficient for ≥90% inhibition of growth, Fm
[27] = ≥90% inhibition, 48 hours vs 2% DMSO control, read-out: Compound Concentration (ppm) sufficient for ≥90% inhibition of growth, Fv
[28] = ≥90% inhibition, 48 hours vs 2% DMSO control, read-out: Compound Concentration (ppm) sufficient for ≥90% inhibition of growth, Pc
[29] = ≥90% inhibition, 48 hours vs 2% DMSO control, read-out: Compound Concentration (ppm) sufficient for ≥90% inhibition of growth, Rs
[30] = ≥90% inhibition, 48 hours vs 2% DMSO control, read-out: Compound Concentration (ppm) sufficient for ≥90% inhibition of growth, St

SMILES | IC90 [1, 15] [µg/mL] | IC90 [2, 16] [µg/mL] | IC90 [3, 17] [µg/mL] | IC90 [4, 18] [µg/mL] | IC90 [5, 19] [µg/mL] | IC90 [6, 20] [µg/mL] | IC90 [7, 21] [µg/mL] | IC90 [8, 22] [µg/mL] | Barley Powdery Mildew Control at a compound concentration of 10 ppm or lower [9] | Cucumber Powdery Mildew Control at a compound concentration of 10 ppm or lower [10] | Septoria Leaf Blotch Control at a compound concentration of 25 ppm or lower [11] | Wheat Fusarium Head Blight Control at a compound concentration of 25 ppm or lower [12] | Wheat Leaf Rust Control at a compound concentration of 10 ppm or lower [13] | Asian Soybean Rust Control at a compound concentration of 25 ppm or lower [14] | IC90 [1, 23] [µg/mL] | IC90 [2, 24] [µg/mL] | IC90 [3, 25] [µg/mL] | IC90 [4, 26] [µg/mL] | IC90 [5, 27] [µg/mL] | IC90 [6, 28] [µg/mL] | other results
COc1ccc(F)cc1[C@H](Cn1c(=O)n([C@H](C)C(=O)NC2CCC2)c(=O)c2c(C)c(-n3cccn3)sc21)OCCC#N [Compound I-308, (R)-2-(1-((R)-2-(2-cyanoethoxy)-2-(5-fluoro-2-methoxyphenyl)ethyl)-5-methyl-2,4-dioxo-6-(1H-pyrazol-1-yl)-1,4-dihydrothieno[2,3-d]pyrimidin-3 (2H)-yl)-N-cyclobutylpropanamide] | 0.4 (≈ 0.673 µM) | 2 (≈ 3.36 µM) | 2 (≈ 3.36 µM) | 0.4 (≈ 0.673 µM) | 2 (≈ 3.36 µM) | 50 (≈ 84.1 µM) | 0.08 (≈ 0.135 µM) | > 50 | AA (≥85% control of barley powdery mildew) | AA (≥85% control of cucumber powdery mildew) | AA (≥85% control of wheat septoria leaf blotch) | C (from 25 to 49% control of wheat fusarium head blight) | AA (≥85% control of wheat leaf rust) | C (from 25 to 49% control of Asian soybean rust) | – | – | – | – | – | – | –
COc1ccc(F)cc1[C@H](Cn1c(=O)n([C@H](C)C(=O)NC2CCC2)c(=O)c2c(C)c(-n3nccn3)sc21)OCCO [Compound I-092, (R)—N-cyclobutyl-2-(1-((R)-2-(5-fluoro-2-methoxyphenyl)-2-(2-hydroxyethoxy)ethyl)-5-methyl-2,4-dioxo-6-(2H-1,2,3-triazol-2-yl)-1,4-dihydrothieno[2,3-d]pyrimidin-3(2H)-yl)propanamide] | – | – | – | – | – | – | – | – | C (from 25 to 49% control of barley powdery mildew) | AA (≥85% control of cucumber powdery mildew) | B (from 50 to 69% control of wheat septoria leaf blotch) | C (from 25 to 49% control of wheat fusarium head blight) | AA (≥85% control of wheat leaf rust) | B (from 50 to 69% control of Asian soybean rust) | 0.4 (≈ 0.682 µM) | 0.08 (≈ 0.136 µM) | 0.4 (≈ 0.682 µM) | 0.08 (≈ 0.136 µM) | > 0.4 | 2 (≈ 3.41 µM) | IC90 [7, 29]: 0.08 µg/mL (≈ 0.136 µM); IC90 [8, 30]: ≥ 2 µg/mL
CCOC(=O)c1sc2c(c1C)c(=O)n(C(C)(C)C(=O)NC(C)C)c(=O)n2C[C@H](O)c1cc(F)ccc1OC [Compound I-186, (R)-ethyl-1-(2-(5-fluoro-2-methoxyphenyl)-2-hydroxyethyl)-3-(1-(isopropylamino)-2-methyl-1-oxopropan-2-yl)-5-methyl-2,4-dioxo-1,2,3,4-tetrahydrothieno[2,3-d]pyrimidine-6-carboxylate] | 0.4 (≈ 0.728 µM) | 2 (≈ 3.64 µM) | 2 (≈ 3.64 µM) | 0.08 (≈ 0.146 µM) | 0.08 (≈ 0.146 µM) | > 50 | 0.4 (≈ 0.728 µM) | > 50 | A (from 70% to 84% control of barley powdery mildew) | C (from 25 to 49% control of cucumber powdery mildew) | D (<25% control of wheat septoria leaf blotch) | B (from 50 to 69% control of wheat fusarium head blight) | C (from 25 to 49% control of wheat leaf rust) | D (<25% control of Asian soybean rust) | – | – | – | – | – | – | –
COc1ccc(F)cc1[C@H](Cn1c(=O)n(C(C)(C)C(=O)NC(C)C)c(=O)c2c(C)c(-n3nccn3)sc21)OC[C@@H](C)C#N [Compound I-211, 2-(1-((R)-2-((S)-2-cyanopropoxy)-2-(5-fluoro-2-methoxyphenyl)ethyl)-5-methyl-2,4-dioxo-6-(2H-1,2,3-triazol-2-yl)-1,4-dihydrothieno[2,3-d]pyrimidin-3 (2H)-yl)-N-isopropyl-2-methylpropanamide] | 0.4 (≈ 0.654 µM) | 0.08 (≈ 0.131 µM) | 0.08 (≈ 0.131 µM) | 0.08 (≈ 0.131 µM) | 0.4 (≈ 0.654 µM) | > 50 | 0.08 (≈ 0.131 µM) | > 50 | AA (≥85% control of barley powdery mildew) | AA (≥85% control of cucumber powdery mildew) | AA (≥85% control of wheat septoria leaf blotch) | C (from 25 to 49% control of wheat fusarium head blight) | A (from 70% to 84% control of wheat leaf rust) | AA (≥85% control of Asian soybean rust) | – | – | – | – | – | – | –
COCCCO[C@@H](Cn1c(=O)n([C@H](C)C(=O)NC(C)C)c(=O)c2c(C)c(-n3nccn3)sc21)c1cc(F)ccc1OC [Compound I-094, (R)-2-(1-((R)-2-(5-fluoro-2-methoxyphenyl)-2-(3-methoxypropoxy)ethyl)-5-methyl-2,4-dioxo-6-(2H-1,2,3-triazol-2-yl)-1,4-dihydrothieno[2,3-d]pyrimidin-3 (2H)-yl)-N-isopropylpropanamide] | – | – | – | – | – | – | – | – | AA (≥85% control of barley powdery mildew) | AA (≥85% control of cucumber powdery mildew) | A (from 70% to 84% control of wheat septoria leaf blotch) | A (from 70% to 84% control of wheat fusarium head blight) | C (from 25 to 49% control of wheat leaf rust) | C (from 25 to 49% control of Asian soybean rust) | 0.08 (≈ 0.133 µM) | 0.08 (≈ 0.133 µM) | > 0.4 | 0.08 (≈ 0.133 µM) | 0.08 (≈ 0.133 µM) | > 50 | IC90 [7, 29]: 0.08 µg/mL (≈ 0.133 µM); IC90 [8, 30]: ≥ 10 µg/mL
